Measured values published in patent publication US8063060B2, “R(−)-11-hydroxyaporphine derivatives and uses thereof” (The McLean Hospital Corporation, priority 2004, dated 2011).
Counter-ions that a name gives are not always drawn. Like-named read-outs stand apart in the source and are kept apart here.

Tests used:
[1] = following a single dose; cited from earlier work
[2] = tested on: adult male Sprague-Dawley rats; test: Stimulation of motor activity (photobeam activity monitoring), in vivo potency and oral bioavailability; parameters: species or system rat; conditions: for Induced motor activation, Response (total of electronically monitored locomotor responses, scored over time): relative to 4 μmol/kg i.p. R(−)-apomorphine = 1
Description: In vivo potency and oral bioavailability of the aporphine derivatives were determined by measuring stimulation of motor activity in adult male Sprague-Dawley rats using a photobeam activity monitoring system (San Diego Instruments; San Diego, Calif.). See Zhang et al., Neuropsychopharmacology 25:624 (2001). The number of animal subjects in each experimental group ranged from 4 to 8. Oral delivery of test agents was achieved using a permanently surgically pre-implanted polyethylene gastric tube to avoid stress associated with conventional oral intubation. For this surgery, rates were anesthetized with 60 mg/kg sodium pentobarbital intraperitoneally. PE50 tubing was inserted and sutured to the stomach, and led subcutaneously to a point of access on the back of the neck, where it was sutured in place. Animals were allowed two weeks to recover prior to behavior testing.

[3] = biological target: T1, human D3 receptor (Homo sapiens, UniProt P35462); test: Affinity at human D3 receptor in transfected cell membranes, tritium-labeled 7-OH-DPAT; type: binding
T1 construct: expressed in transfected cells
T1 sequence (P35462 whole entry): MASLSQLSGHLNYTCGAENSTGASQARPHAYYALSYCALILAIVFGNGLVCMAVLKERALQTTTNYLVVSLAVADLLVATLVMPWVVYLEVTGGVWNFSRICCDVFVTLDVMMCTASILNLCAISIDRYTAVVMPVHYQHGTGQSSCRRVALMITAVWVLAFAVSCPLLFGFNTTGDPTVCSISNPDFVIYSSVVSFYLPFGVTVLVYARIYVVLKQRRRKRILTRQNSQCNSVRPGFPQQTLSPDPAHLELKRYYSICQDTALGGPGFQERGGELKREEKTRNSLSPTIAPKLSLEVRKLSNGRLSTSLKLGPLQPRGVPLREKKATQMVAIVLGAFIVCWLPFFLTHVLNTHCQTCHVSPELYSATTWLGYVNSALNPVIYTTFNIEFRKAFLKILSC
Description: (§1) Affinity data were obtained in cells transfected with human D1, D2, or D3 receptor cDNA. Cells were grown and harvested using standard procedures.

[4] = biological target: T2, dopamine D1 receptor (Rattus norvegicus, UniProt P18901); test: Radioligand competition assay, D1 receptor, rat corpus striatum membranes, [3H]SCH-23390; type: binding
T2 construct: membrane preparations from dopamine-rich corpus striatum (caudatoputamen) tissue from rat forebrain; from tissue; host or cells: corpus striatum (caudatoputamen) of adult male Sprague-Dawley rats
T2 sequence (P18901 whole entry): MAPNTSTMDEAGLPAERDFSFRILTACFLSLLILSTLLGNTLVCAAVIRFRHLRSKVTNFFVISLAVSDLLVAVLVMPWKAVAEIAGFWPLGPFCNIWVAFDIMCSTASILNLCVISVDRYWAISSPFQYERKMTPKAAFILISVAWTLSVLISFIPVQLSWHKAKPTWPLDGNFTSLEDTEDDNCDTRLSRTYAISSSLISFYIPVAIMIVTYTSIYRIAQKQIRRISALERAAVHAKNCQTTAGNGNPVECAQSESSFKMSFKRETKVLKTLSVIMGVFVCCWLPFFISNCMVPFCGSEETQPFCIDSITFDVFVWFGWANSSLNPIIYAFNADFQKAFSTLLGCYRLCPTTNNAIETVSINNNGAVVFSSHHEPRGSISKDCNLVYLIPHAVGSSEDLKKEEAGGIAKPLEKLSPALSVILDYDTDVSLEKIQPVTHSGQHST
Description: (§2) Affinity of N-alkyl R(−)-11-hydroxyaporphines (14, 4, 5, 15, 23, 24) and their esters (17-19) for the dopamine D1 and D2 receptors was determined by radioligand competition assays, using membrane preparations from dopamine-rich corpus striatum (caudatoputamen) tissue from rat forebrain. Adult male Sprague-Dawley rats were sacrificed by decapitation following carbon dioxide narcosis. Brains were quickly removed and dissected on ice. Tissue was homogenized in 50 mM Tris-HCl buffer (pH 7.4) containing 150 mM NaCl, washed twice and resuspended in the same buffer. For the D1 dopamine receptor assay, homogenate was incubated with 0.3 nM [^3H]SCH-23390 (Perkin Elmer; Boston, Mass.) for 30 minutes at 30° C. Non-specific binding was defined with 10 μM cis-flupenthixol. See Faedda et al., Biochem. Pharmacol. 38:473 (1989). For the D2 receptor assay, homogenate was incubated with […] [^3H]nemonapride (Perkin Elmer, Boston, Mass.) for 90 minutes at 30° C. Nonspecific binding was defined with 10 μM haloperidol. See Baldessarini et al., Mol. Pharmacol. 42:856 (1992). Experiments were carried out in triplicate.

[5] = biological target: dopamine D2 receptor (Rattus norvegicus, UniProt P61169); test: Radioligand competition assay, D2 receptor, rat corpus striatum membranes, [3H]nemonapride; type: binding
dopamine D2 receptor, sequence (P61169 1-415 isoform P61169-2): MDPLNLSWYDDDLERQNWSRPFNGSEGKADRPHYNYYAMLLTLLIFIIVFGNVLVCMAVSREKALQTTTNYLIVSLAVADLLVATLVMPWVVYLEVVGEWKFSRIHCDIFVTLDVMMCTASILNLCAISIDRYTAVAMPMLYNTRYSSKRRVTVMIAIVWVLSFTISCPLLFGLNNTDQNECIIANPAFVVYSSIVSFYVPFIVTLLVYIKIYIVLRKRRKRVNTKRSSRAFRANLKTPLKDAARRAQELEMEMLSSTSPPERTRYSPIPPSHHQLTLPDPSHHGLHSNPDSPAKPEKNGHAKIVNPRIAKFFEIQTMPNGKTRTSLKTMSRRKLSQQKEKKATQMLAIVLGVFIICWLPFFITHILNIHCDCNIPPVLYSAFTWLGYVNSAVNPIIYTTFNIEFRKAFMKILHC
Description: as §2

[6] = biological target: T3, human D1 receptor (Homo sapiens, UniProt P21728); test: Affinity at human D1 receptor in transfected cell membranes, tritium-labeled SCH-23390; type: binding
T3 construct: expressed in transfected cells
T3 sequence (P21728 whole entry): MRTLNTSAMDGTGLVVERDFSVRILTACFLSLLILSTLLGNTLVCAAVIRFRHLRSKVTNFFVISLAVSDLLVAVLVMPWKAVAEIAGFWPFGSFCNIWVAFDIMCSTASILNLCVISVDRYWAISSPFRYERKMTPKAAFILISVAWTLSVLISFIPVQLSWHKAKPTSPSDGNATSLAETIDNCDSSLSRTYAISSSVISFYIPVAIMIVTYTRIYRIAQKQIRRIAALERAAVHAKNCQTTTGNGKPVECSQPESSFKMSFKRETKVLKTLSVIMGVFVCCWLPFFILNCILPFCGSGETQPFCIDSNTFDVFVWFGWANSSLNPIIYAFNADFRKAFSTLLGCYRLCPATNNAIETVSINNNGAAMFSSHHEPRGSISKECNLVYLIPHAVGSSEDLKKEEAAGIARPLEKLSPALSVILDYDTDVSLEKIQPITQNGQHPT
Description: as §1

[7] = biological target: T4, human D2 receptor (Homo sapiens, UniProt P14416); test: Affinity at human D2 receptor in transfected cell membranes, tritium-labeled nemonapride; type: binding
T4 construct: expressed in transfected cells
T4 sequence (P14416 whole entry): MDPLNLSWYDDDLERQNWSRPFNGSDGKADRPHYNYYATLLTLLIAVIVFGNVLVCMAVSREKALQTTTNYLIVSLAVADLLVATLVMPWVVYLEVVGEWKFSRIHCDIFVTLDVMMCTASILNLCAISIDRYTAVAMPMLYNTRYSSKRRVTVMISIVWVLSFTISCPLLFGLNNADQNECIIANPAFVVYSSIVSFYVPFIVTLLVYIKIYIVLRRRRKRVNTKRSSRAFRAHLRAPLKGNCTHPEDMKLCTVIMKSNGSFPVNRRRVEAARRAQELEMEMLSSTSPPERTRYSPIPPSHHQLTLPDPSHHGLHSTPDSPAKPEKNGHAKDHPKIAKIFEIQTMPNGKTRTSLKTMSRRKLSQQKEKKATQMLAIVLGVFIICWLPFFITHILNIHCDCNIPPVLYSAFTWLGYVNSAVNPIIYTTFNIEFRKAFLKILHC
Description: as §1

[8] = transfected cell membranes, read-out: Affinity at human receptors, D3
[9] = rat striatal membranes, 0.3 nM [3H]SCH-23390, 30 minutes at 30° C, read-out: Affinity at rat dopamine receptors, D1
[10] = rat striatal membranes, [3H]nemonapride, 90 minutes at 30° C, read-out: Affinity at rat dopamine receptors, D2
[11] = transfected cell membranes, read-out: Affinity at human receptors, D1
[12] = transfected cell membranes, read-out: Affinity at human receptors, D2

SMILES	Induced motor activation, Response (total of electronically monitored locomotor responses, scored over time) ([2]; 4 μmol/kg, gastric)	Induced motor activation, Duration ([2]; 4 μmol/kg, peritoneal)	Induced motor activation, Response (total of electronically monitored locomotor responses, scored over time) ([2]; 4 μmol/kg, peritoneal)	Induced motor activation, Duration ([2]; 20 μmol/kg, gastric)	Induced motor activation, Response (total of electronically monitored locomotor responses, scored over time) ([2]; 20 μmol/kg, gastric)	Ki [4, 9]	also measured
C=CCN1CCc2cccc3c2[C@H]1Cc1cccc(O)c1-3 (as salt: hydrochloride) [Compound 5, R(−)-N-allyl-11-hydroxynoraporphine]							melting point: 186 to 190 °C
CCN1CCc2cccc3c2[C@H]1Cc1cccc(O)c1-3 (as salt: hydrochloride) [Compound 14, R(−)—N-ethyl-11-hydroxynoraporphine]							melting point: 250 °C
CN1CCc2cccc3c2[C@H]1Cc1ccc(O)c(O)c1-3 [Compound 1, R(−)-apomorphine]							effects last for [1]: 40 to 60 min; onset of action [1]: 5 to 15 min
CCCN1CCc2cccc3c2[C@H]1Cc1ccc(O)c(O)c1-3 [Compound 2, R(−)-N-propylnorapomorphine, reference compound]	0	8 h	12	14 h	68		Ki [3, 8]: 0.51 ± 0.07 nM
CN1CCc2cccc3c2[C@H]1Cc1cccc(O)c1-3 [Compound 3, R(−)-11-OH-aporphine, reference compound]						26.5 ± 1.03 nM	Ki [5, 10]: 108 ± 10.8 nM
CCCN1CCc2cccc3c2[C@H]1Cc1cccc(O)c1-3 [Compound 4, R(−)—N-propyl-11-hydroxynoraporphine]	0	8 h	24	18 h	76		Ki [6]: 1280 ± 209 nM; Ki [3]: 4.89 ± 1.06 nM
C=CCN1CCc2cccc3c2[C@H]1Cc1cccc(O)c1-3 [Compound 5, R(−)-N-allyl-11-hydroxynoraporphine]							Ki [4]: 397 ± 51 nM; Ki [5]: 41.1 ± 11 nM; Ki [6]: 944 ± 149 nM; Ki [7]: 113 ± 17 nM
CCN1CCc2cccc3c2[C@H]1Cc1cccc(O)c1-3 [Compound 14, R(−)—N-ethyl-11-hydroxynoraporphine]	0	4 h	12		0	177 ± 13 nM	Ki [5]: 88 ± 15.5 nM; Ki [6, 11]: 362 ± 38 nM; Ki [7, 12]: 283 ± 53 nM; Ki [3]: 36.7 ± 4 nM
Oc1cccc2c1-c1cccc3c1[C@@H](C2)N(CC1CC1)CC3 [Compound 15, R(−)-N-cyclopropylmethyl-11-hydroxynoraporphine]						272 ± 18 nM	Ki [5]: 96.3 ± 15.8 nM; Ki [7, 12]: 436 ± 39 nM; Ki [3]: 30.1 ± 3.5 nM
CC/C=C\C/C=C\C/C=C\C/C=C\C/C=C\C/C=C\CCC(=O)Oc1cccc2c1-c1cccc3c1[C@@H](C2)N(CCC)CC3 [Compound 17, R(−)-11-O-docosahexaenoyl-N-propyl-noraporphine]	0			12 h	75		Induced motor activation, Response (total of electronically monitored locomotor responses, scored over time) ([2]; 4 μmol/kg, cutaneous): 0; Induced motor activation, Duration ([2]; 20 μmol/kg, cutaneous): 6 h; Induced motor activation, Response (total of electronically monitored locomotor responses, scored over time) ([2]; 20 μmol/kg, cutaneous): 5
CCCCC(=O)Oc1cccc2c1-c1cccc3c1[C@@H](C2)N(CCC)CC3 [Compound 18, R(−)-11-O-valeryl-N-propyl-noraporphine]	0	12 h	53	14 h	99		Ki ([5]; read-out: Affinity at rat dopamine receptors, D2): 340 ± 65 nM
CCCN1CCc2cccc3c2[C@H]1Cc1cccc(OC(C)=O)c1-3 [Compound 19, R(−)-11-O-acetyl-N-propyl-noraporphine]	0	8 h	12	16 h	168		Ki [5, 10]: 72.3 ± 6.8 nM
CCCN1CCc2cc(F)cc3c2[C@H]1Cc1ccc(O)c(O)c1-3 [Compound 22, R(−)-2-fluoro-N-n-propylnorapomorphine, reference compound]						618 ± 133 nM	Ki [5, 10]: 17.2 ± 1.2 nM; Ki [6, 11]: 414 ± 30 nM; Ki [7, 12]: 46 ± 2.6 nM; Ki [3, 8]: 2.49 ± 0.18 nM
CCCN1CCc2cc(F)cc3c2[C@H]1Cc1cccc(O)c1-3 [Compound 23, R(−)-2-fluoro-N-propyl-11-hydroxynoraporphine]							Ki [4]: 12.6 ± 0.6 nM; Ki [5, 10]: 203 ± 37 nM
CN1CCc2cc(O)cc3c2[C@H]1Cc1cccc(O)c1-3 [Compound 24, R(−)-2,11-dihydroxyaporphine]						122 ± 8 nM	Ki [5]: 86 ± 14.2 nM
